From patent US10398710B2, “Method for screening regulator of mitochondrial fission” (priority 2015, dated 2019)
Converted amounts (≈) assume the structure as drawn. Peptide text beside a SMILES is read from it. * marks the point of attachment. Cbz = O=C(OCc1ccccc1)*; CH2F = FC*

Key:
MCF-7 cells [1] = experiment: WST-1 viability of MCF-7 cells pretreated with ginsenoside, then treated with doxorubicin or tamoxifen; type: cell-based; details: for effect on anticancer activity of doxorubicin / anticancer activity with doxorubicin compared to only doxorubicin: 10 μg/mL ginsenoside 12 hours; for effect on anticancer activity of doxorubicin: then 5 μg/mL doxorubicin 12 hours; for anticancer activity with doxorubicin compared to only doxorubicin: then doxorubicin 0-50 μg/mL 24 hours
Experimental: Specifically, 10 μg/mL of PPD-type ginsenoside compound (F2, Rh2, C-K, or PPD) was added to the MCF-7 cells and was cultured for 12 hours. 20 μM of tamoxifen or 5 μg/mL of doxorubicin was then treated, and 12 hours of culturing was performed. Upon completion of the culturing, viability of MCF-7 cells was compared via WST-1 analysis (FIG. 2a).
Accordingly, in order to investigate whether C-K or PPD has an effect on a treatment concentration of doxorubicin, 10 μg/mL of the PPD-type ginsenoside compound (C-K or PPD) was added and cultured for 12 hours. Doxorubicin at various concentrations (0, 0.1, 0.5, 1, 2, 5, 10, and 50 μg/mL) was then treated and cultured for 24 hours, followed by comparing viabilities of the MCF-7 cells and also comparing LC50 values calculated therefrom via WST-1 analysis (FIG. 2b).

MCF-7 cells [2] = experiment: Cytochrome-C release from mitochondria, immunofluorescent staining; type: cell-based, human; details: for increase in level of cytochrome-C release compared to doxorubicin alone / total cells from which cytochrome-C was released, ginsenoside and doxorubicin: 10 μg/mL ginsenoside 24 hours; for increase in level of cytochrome-C release compared to doxorubicin alone: then 5 μg/mL doxorubicin 4 hours; for total cells from which cytochrome-C was released, ginsenoside and doxorubicin: then 5 μg/mL doxorubicin
Experimental: A culture medium containing 10 μg/mL of C-K or PPD was added to MCF-7 cells, was cultured for 24 hours, and was then replaced with a culture medium containing 5 μg/mL of doxorubicin, followed by 0 or 4 hours of culturing. The cultured cells were fixed by adding 4% paraformaldehyde and were perforated by adding an 0.5% Triton X-100 solution, followed by 30 minutes of immunostaining using a cytochrome-C antibody. After staining, the cells were washed with PBS. Stained second antibodies were heated for 30 minutes and washed with PBS, followed by being recorded with a confocal microscope, to measure a level of fluorescence (FIG. 4a).
In this regard, whether the level of cytochrome-C release changes depending on treatment time of doxorubicin was investigated. In other words, a culture medium containing 10 μg/mL of C-K or PPD was added to MCF-7 cells, was cultured for 24 hours, and was then replaced with a culture medium containing 5 μg/mL of doxorubicin, followed by 0, 0.5, 1, 2, 4, or 6 hours of culturing. The immunofluorescent staining was performed in the same manner as previously described except the culturing time to measure the number of cytochrome-C released into cytoplasm from mitochondria (FIG. 4b). As a control group, an experiment group untreated with ginsenoside was used.

MCF-7 cells [3] = experiment: Western blot of apoptosis-related proteins (pJNK, cleaved-PARP, cleaved-caspase-9); type: cell-based, human; details: for level of cleaved-PARP, effect of ginsenoside treatment / level of cleaved-caspase-9, effect of ginsenoside treatment / level of pJNK, effect of ginsenoside treatment: 10 μg/mL ginsenoside with 5 μg/mL doxorubicin
Experimental: A culture medium containing 10 μg/mL of C-K or PPD was added to the MCF-7 cells, was cultured for 12 hours, and was then replaced with a culture medium containing 10 μg/mL of C-K or PPD and 0 g/mL or 5 μg/mL of doxorubicin, followed by 24 hours of culturing. The cultured cells were destroyed, and Western blot analysis was performed using a pJNK antibody, PARP antibody, cleaved-PARP antibody, caspase-9 antibody, or cleaved-caspase-9 antibody (FIG. 3a).
Accordingly, a culture medium containing 10 μg/mL of PPD was added to the MCF-7 cells, was cultured for 12 hours, and was then replaced with a culture medium containing 10 μg/mL of PPD and 5 μg/mL of doxorubicin, followed by 0, 0.5, 1, 2, 4, or 6 hours of culturing. Western blot analysis was performed using the cultured cells in the same manner as above (FIG. 3b). As a comparison group, cells cultured in a culture medium containing doxorubicin only was used instead of that containing both PPD and doxorubicin.

MCF-7 cells [4] = experiment: WST-1 viability of siRNA-treated MCF-7 cells treated with doxorubicin or tamoxifen; type: cell-based, human; details: siRNA-treated MCF-7, 5 μM doxorubicin or 20 μM tamoxifen, 24 hours
Experimental: Meanwhile, each synthesized siRNA was inoculated into MCF-7 cells and was cultured for 12 hours. The cells were again cultured in a standard culture medium in which siRNA is not contained for 48 hours, followed by treating with 5 μM doxorubicin or 20 μM tamoxifen and culturing for 24 hours. After culturing, viabilities of the MCF-7 cells were measured via WST-1 analysis (FIG. 6b). As a control group, cells cultured without treating with doxorubicin or tamoxifen were used.

MCF-7 cells [5] = experiment: Effect of PARP or caspase-9 inhibitor on the anticancer effect of doxorubicin with C-K or PPD; type: cell-based, human; details: for anticancer effect of doxorubicin in cells treated with the inhibitor: all control and experiment groups, 5 μg/mL doxorubicin 24 hours; for anticancer activity of doxorubicin under PARP activity inhibitor with ginsenoside: 10 μg/mL ginsenoside and 5 μg/mL doxorubicin
Experimental: Specifically, a culture medium containing 10 μg/mL of C-K or PPD was added to MCF-7 cells already treated with Z-LEHD-FMK, an inhibitor of caspase-9, or 3-AB, an inhibitor of PARP, was cultured for 12 hours, and was then replaced with a culture medium containing 10 μg/mL of C-K or PPD and 0 g/mL or 5 μg/mL of doxorubicin, followed by 24 hours of culturing. Western blot analysis was performed using the cultured cells in the same manner as above (FIG. 3c).

MCF-7 cells [6] = experiment: Fluorescence staining of mitochondria with Tom-20; type: cell-based, human; details: 10 μg/mL, 24 hours, Tom-20 staining
Experimental: In other words, a culture medium containing 10 μg/mL of C-K or PPD was added to MCF-7 cells and was cultured for 24 hours. The cultured cells were fixed by adding 4% paraformaldehyde and were perforated by adding a 0.5% Triton X-100 solution, followed by staining the mitochondria using Tom-20. The stained cells were washed with PBS and were recorded with a confocal microscope to measure a level of fluorescence (FIG. 5a).

MCF-7 cells [7] = experiment: WST-1 viability of MCF-7 cells treated with PPD-type ginsenoside compounds; type: cell-based, human; details: MCF-7, 0-200 μg/mL, 24 hours
Experimental: First, MCF-7 cells, a human breast cancer cell line, were inoculated in a DMEM culture medium containing 10% FBS and 1% penicillin/streptomycin, and were then cultured at conditions of 37° C. and 5% CO2. When the cultured MCF-7 cells were saturated, subculture thereof was followed in a three- to five-day interval.
The cultured MCF-7 cells were treated with the PPD-type ginsenoside compounds (F2, Rh2, C-K, or PPD) at various concentrations (0, 5, 10, 20, 50, 100, or 200 μg/mL) for 24 hours, and WST-1 analysis was then performed on the cells to measure viability thereof (FIG. 1). The WST-1 analysis was performed by inoculating each cell in a culture medium containing 10% EZ-Cytox and reacting at 37° C. for 1.5 hours, followed by measuring a level of water-soluble formazan dye produced by the viable cells as absorbance (450 nm) and analyzing the same to calculate the cell viability.

MCF-7 cells [8] = experiment: Western blot of mitochondrial fission- and fusion-related proteins; type: cell-based, human; details: 10 μg/mL, 24 hours
Experimental: In this regard, Western blot analysis was performed for each cultured cell to compare an expression level of the mitochondrial fission-related proteins (Drp1, Fis1, or OPA-3) and mitochondrial fusion-related proteins (Mfn1. Mfn2, or OPA1) (FIG. 5b).

[9] = 10 μg/mL PPD and 5 μg/mL doxorubicin, 0-6 hours

SMILES | anticancer activity on cells with mitochondrial fission (MCF-7 cells [4]) | change of anticancer activity depending on siRNA (Mfn2 inhibited compared to Mfn1 inhibited) (MCF-7 cells [4]) | anticancer effect of doxorubicin in cells treated with the inhibitor (MCF-7 cells [5]) | effect on anticancer activity of doxorubicin (MCF-7 cells [1]) | anticancer activity with doxorubicin compared to only doxorubicin (MCF-7 cells [1]) | anticancer activity of doxorubicin under PARP activity inhibitor with ginsenoside (MCF-7 cells [5]) | increase in level of cytochrome-C release compared to doxorubicin alone (MCF-7 cells [2]) | total cells from which cytochrome-C was released, ginsenoside and doxorubicin (MCF-7 cells [2]; after 6 hours) | state of mitochondria compared to negative control group (MCF-7 cells [6]) | anticancer activity against breast cancer cells (viability) (MCF-7 cells [7]) | level of cleaved-PARP, effect of ginsenoside treatment (MCF-7 cells [3]; 24 hours) | level of cleaved-caspase-9, effect of ginsenoside treatment (MCF-7 cells [3]; 24 hours) | level of pJNK, effect of ginsenoside treatment (MCF-7 cells [3]; 24 hours) | expression level of mitochondrial fission-related protein OPA-3 (MCF-7 cells [8]) | expression level of mitochondrial fusion-related protein Mfn2 (MCF-7 cells [8]) | also measured
COc1cccc2c1C(=O)c1c(O)c3c(c(O)c1C2=O)C[C@@](O)(C(=O)CO)C[C@@H]3O[C@H]1C[C@H](N)[C@H](O)[C@H](C)O1 [doxorubicin, reference compound] | significantly higher anticancer activity | significantly increased |  |  |  |  |  |  |  |  |  |  |  |  |  | CC50 (MCF-7 cells [1]; Homo sapiens, MCF7, 24 h, read-out: LC50): ~10 µg/mL (≈ 18.4 µM); level of cytochrome-C release compared to no doxorubicin (MCF-7 cells [2]; 5 μg/mL doxorubicin, 4 hours): increased; total cells from which cytochrome-C was released (MCF-7 cells [2]; only doxorubicin 5 μg/mL, after 6 hours): 7%; level of cleaved-PARP (MCF-7 cells [3]; 5 μg/mL doxorubicin, 24 hours): increased; level of cleaved-caspase-9 (MCF-7 cells [3]; 5 μg/mL doxorubicin, 24 hours): increased; level of pJNK (MCF-7 cells [3]; 5 μg/mL doxorubicin, 24 hours): increased
CC/C(=C(\c1ccccc1)c1ccc(OCCN(C)C)cc1)c1ccccc1 [tamoxifen] | showed the anticancer activity | no difference |  |  |  |  |  |  |  |  |  |  |  |  |  | 
COC(=O)CC[C@H](NC(=O)[C@H](CC(C)C)NC(=O)OCc1ccccc1)C(=O)N[C@@H](Cc1cnc[nH]1)C(=O)N[C@@H](CC(=O)OC)C(=O)CF [caspase-9 inhibitor, Z-LEHD-FMK, reference compound] (Cbz-LE(OMe)HD(OMe)-CH2F) |  |  | inhibited |  |  |  |  |  |  |  |  |  |  |  |  | 
CC(C)=CCC[C@](C)(O[C@@H]1OC(CO)[C@@H](O)C(O)C1O)C1CC[C@]2(C)C1[C@H](O)CC1[C@@]3(C)CCC(O)C(C)(C)C3CC[C@]12C (some centres unmarked) [C-K, compound-K] |  |  |  | could enhance an anticancer activity by doxorubicin | increased | somewhat recovered | higher | 20% | damaged | relatively excellent anticancer activity | not affected | noticeably increased | not affected | increased | decreased | 
NC(=O)c1cccc(N)c1 [PARP inhibitor, 3-AB, reference compound] |  |  | inhibited |  |  |  |  |  |  |  |  |  |  |  |  | 
CC(C)=CCC[C@](C)(O)[C@H]1CC[C@]2(C)[C@@H]1[C@H](O)C[C@@H]1[C@@]3(C)CC[C@H](O)C(C)(C)[C@@H]3CC[C@]12C [PPD, protopanaxadiol] |  |  |  | could enhance an anticancer activity by doxorubicin | increased | somewhat recovered | higher | 43% | damaged | relatively excellent anticancer activity | not affected | significantly increased | not affected | increased | decreased | formation of cleaved-PARP over time compared to doxorubicin only (MCF-7 cells [3]; [9]): faster; formation of cleaved-caspase-9 over time compared to doxorubicin only (MCF-7 cells [3]; [9]): faster
